Experimental data taken from ChEMBL document CHEMBL3817799, “N-Nitrosulfonamides: A new chemotype for carbonic anhydrase inhibition” (Bioorg Med Chem, 2016).

Key:
[1] = target: Carbonic anhydrase 2 (Homo sapiens, UniProt P00918); assay: Inhibition of human recombinant carbonic anhydrase 2 preincubated for 15 mins prior to testing by stopped flow CO2 hydrase assay
[2] = target: Carbonic anhydrase 9 (Homo sapiens, UniProt Q16790); assay: Inhibition of human recombinant carbonic anhydrase 9 preincubated for 15 mins prior to testing by stopped flow CO2 hydrase assay
[3] = Inhibition of Malassezia globosa beta carbonic anhydrase preincubated for 15 mins prior to testing by stopped flow CO2 hydrase assay
[4] = test system: Malassezia globosa; assay: Potency index, ratio of acetazolamide Ki to compound Ki for Malassezia globosa beta carbonic anhydrase

Structure (SMILES) | Ki [1] [µM] | Ki [2] [nM] | Ki [3] [µM] | Ratio Ki [4]
N#CCNc1ccc(S(=O)(=O)N[N+](=O)[O-])cc1 | 1.35 | 2000 | 3.49 | 10
Nc1nnc(S(=O)(=O)N[N+](=O)[O-])s1 | 4.52 | 840 | 4.5 | 10
CC(=O)Nc1nnc(S(N)(=O)=O)s1 [ACETAZOLAMIDE] |  |  | 74 | 
NCc1ccc(S(=O)(=O)N[N+](=O)[O-])cc1 |  | 5990 | 8.09 | 
CN(C)c1ccc(S(=O)(=O)N[N+](=O)[O-])cc1 | > 50 |  | 0.22 | 10
Nc1cccc(S(=O)(=O)N[N+](=O)[O-])c1 | 5.11 | > 50000 | 2.75 | 10
